Source: patent publication US5110976A, “Insecticidal composition comprising more than one active ingredient” (priority 1985, dated 1992)

Key:
[1] = system: Phaedon cochleariae; details: bioresmetrine = 100; cited from earlier work
[2] = system: Musca domestica; details: bioresmetrine = 100; cited from earlier work
[3] = system: Musca domestica; test: Filter paper disc contact test (Table 11); type: in vivo, house fly (Musca domestica); details: Musca domestica, 24 h
Method: In Table 1 the activity of various stereoisomers of cypermethrin on the house fly (Musca domestica) is shown.
(§1) The active ingredient is dissolved in a 1:2 mixture of oil and acetone; filter paper discs (Whatman No. 1, diameter 9 cm) are impregnated with the solutions of the corresponding stereoisomers and enantiomer-pairs, respectively. The acetone is allowed to evaporate, whereupon the insects are exposed to filter papers discs placed in Petri-dishes. Three parallels are used on each dose and 15 insects are placed into each Petri-dish. The percental mortality is determined after 24 hours. The corrected percent mortality is calculated by means of the Abbot Formula.

[4] = system: Tribolium confusum; test: Contact test on Tribolium confusum (Table 12); type: in vivo; details: Tribolium confusum, 24 h
Method: as §1
It appears from Table 12 that the increased activity shown in Example 41 is due to the synergistic effect of the trans-isomers to Tribolium confusum.

[5] = system: T. confusum; test: Activity as function of time, toxic symptoms (Table 16); type: in vivo, flour beetle (T. confusum), imagos
Method: as §1
Activity of cypermethrin stereoisomer-pairs as function of time on flour beetle (T. Confusum).
Flour beetle (T. confusum) imagos are exposed in Petri-dishes according to the method described in Example 43. For each dose 3 parallels are used and 15 animals are applied for each parallel test. In each point of time the insects lying on their backs are counted and the percental results are expressed in Table 16.

[6] = system: Musca domestica; test: Topical LD50 (Table 3); type: in vivo, house fly (Musca domestica), 3-5 days' old females; details: topical, dorsal cuticulum; 24 hours
Method: (§2) In Table 3 the LD50 values of the Ig and Ii isomers and those of the Ib isomer-pair are disclosed. The data are topically measured.
(§3) The active ingredients are dissolved in 2-ethoxyethanol (cellosolve) and 0.3 μl droplets of the solutions are applied onto the dorsal cuticulum of 3-5 days' old female house flies. 10 animals are used and 2 parallels are carried out for each dose. The tests are carried out for 5 dose levels between activity limits of 0% and 100%. After treatment the flies are placed into glass vials. Mortality is determined after 24 hours. Data are transformed to log10 dosage and probit mortality. LD50 and confidence interval values are calculated by linear regression analysis of the log-probit data. The expected values required for the calculation of synergism are obtained by means of harmonic average. The synergistic factor is the quotient of the expected and measured values.

[7] = system: T. confusum; test: Topical LD50 (Table 3); type: in vivo, 1-2 weeks' old imagos; details: topical, abdominal side
Method: as §2, §3
The active ingredients are dissolved in 2-ethoxyethanol and 0.3 μl droplets of the solutions are applied onto the abdominal side of 1-2 weeks' old imagos. Treatment is carried out with 2 parallels and 20 animals for each dose by using 5 dose levels in the range between activity limits of 0% and 100%. Evaluation and determination of LD50 values and synergistic factors are carried out as described in Example 21.

[8] = system: T. confusum; test: Contact method, synergism between stereoisomers (Table 2); type: in vivo; details: Tribolium confusum, 24 h
Method: The stereoisomers are dissolved in a 1:2 mixture of mineral oil and acetone and filter paper discs (Whatman No. 1., diameter 9 cm) are impregnated with the corresponding dosage of the solution of the active ingredient. The acetone is allowed to evaporate and the insects are examined on filter paper discs placed into Petri-dishes. Three parallels are used for each dose and 15 animals are placed in each Petri-dish. Mortality rate is determined after 24 hours. The corrected mortality % data are calculated by means of the Abbot formula.
The test is carried out on T. confusum and the following results are obtained by the contact method for various active ingredient doses.
The test is carried out according to the method described in Example 20.

Compound: CC1(C)[C@H](C=C(Cl)Cl)[C@H]1C(=O)O[C@@H](C#N)c1cccc(Oc2ccccc2)c1 [1RtransR]
- activity related to bioresmetrine (100) [1]: 110
- activity related to bioresmetrine (100) [2]: 81

Compound: CC1(C)[C@H](C=C(Cl)Cl)[C@H]1C(=O)O[C@H](C#N)c1cccc(Oc2ccccc2)c1 [Ig]
- mortality at 40 µg/disc ([3]; 0.04 mg/disc): 48%
- mortality at 110 µg/disc ([3]; 0.11 mg/disc): 68%
- mortality at 330 µg/disc ([3]; 0.33 mg/disc): 83%
- mortality at 1000 µg/disc ([3]; 1.00 mg/disc): 100%
- mortality at 3000 µg/disc ([3]; 3.00 mg/disc): 100%
- activity related to bioresmetrine (100) [1]: 2200
- mortality at 110 µg/disc ([4]; 0.11 mg/disc): 70%
- mortality at 330 µg/disc ([4]; 0.33 mg/disc): 92%
- mortality at 1000 µg/disc ([4]; 1.00 mg/disc): 100%
- mortality at 3000 µg/disc ([4]; 3.00 mg/disc): 100%
- % of insects showing toxic symptoms ([5]; 30 minutes): 0%
- % of insects showing toxic symptoms ([5]; 30 minutes, 0.33 mg/disc): 0%
- % of insects showing toxic symptoms ([5]; 30 minutes, 1.00 mg/disc): 15%
- % of insects showing toxic symptoms ([5]; 30 minutes, 3.00 mg/disc): 68%
- % of insects showing toxic symptoms ([5]; 60 minutes): 18%
- % of insects showing toxic symptoms ([5]; 60 minutes, 0.33 mg/disc): 34%
- % of insects showing toxic symptoms ([5]; 60 minutes, 1.00 mg/disc): 98%
- % of insects showing toxic symptoms ([5]; 60 minutes, 3.00 mg/disc): 100%
- % of insects showing toxic symptoms ([5]; 120 minutes): 30%
- % of insects showing toxic symptoms ([5]; 120 minutes, 0.33 mg/disc): 70%
- % of insects showing toxic symptoms ([5]; 120 minutes, 1.00 mg/disc): 100%
- % of insects showing toxic symptoms ([5]; 120 minutes, 3.00 mg/disc): 100%
- % of insects showing toxic symptoms ([5]; 180 minutes): 34%
- % of insects showing toxic symptoms ([5]; 180 minutes, 0.33 mg/disc): 84%
- % of insects showing toxic symptoms ([5]; 180 minutes, 1.00 mg/disc): 100%
- % of insects showing toxic symptoms ([5]; 180 minutes, 3.00 mg/disc): 100%
- LD50 measured [6]: 13.4 ng/insect
- activity related to bioresmetrine (100) [2]: 1400
- LD50 measured [7]: 73.6 ng/insect
- mortality at 110 µg/disc ([8]; 0.11 mg/disc): 80%
- mortality at 330 µg/disc ([8]; 0.33 mg/disc): 94%
- mortality at 1000 µg/disc ([8]; 1.00 mg/disc): 100%
- mortality at 3000 µg/disc ([8]; 3.00 mg/disc): 100%
